Like-named read-outs stand apart in the source and are kept apart here.
What was measured:
Assay in all cases: biochemical
Set-up in all cases: Eurofins KinaseProfiler full panel at Km ATP, residual kinase activity (%) relative to DMSO
[1] = molecular target: T1, ULK1(h) (Homo sapiens, UniProt O75385)
T1 sequence (O75385 1-1050): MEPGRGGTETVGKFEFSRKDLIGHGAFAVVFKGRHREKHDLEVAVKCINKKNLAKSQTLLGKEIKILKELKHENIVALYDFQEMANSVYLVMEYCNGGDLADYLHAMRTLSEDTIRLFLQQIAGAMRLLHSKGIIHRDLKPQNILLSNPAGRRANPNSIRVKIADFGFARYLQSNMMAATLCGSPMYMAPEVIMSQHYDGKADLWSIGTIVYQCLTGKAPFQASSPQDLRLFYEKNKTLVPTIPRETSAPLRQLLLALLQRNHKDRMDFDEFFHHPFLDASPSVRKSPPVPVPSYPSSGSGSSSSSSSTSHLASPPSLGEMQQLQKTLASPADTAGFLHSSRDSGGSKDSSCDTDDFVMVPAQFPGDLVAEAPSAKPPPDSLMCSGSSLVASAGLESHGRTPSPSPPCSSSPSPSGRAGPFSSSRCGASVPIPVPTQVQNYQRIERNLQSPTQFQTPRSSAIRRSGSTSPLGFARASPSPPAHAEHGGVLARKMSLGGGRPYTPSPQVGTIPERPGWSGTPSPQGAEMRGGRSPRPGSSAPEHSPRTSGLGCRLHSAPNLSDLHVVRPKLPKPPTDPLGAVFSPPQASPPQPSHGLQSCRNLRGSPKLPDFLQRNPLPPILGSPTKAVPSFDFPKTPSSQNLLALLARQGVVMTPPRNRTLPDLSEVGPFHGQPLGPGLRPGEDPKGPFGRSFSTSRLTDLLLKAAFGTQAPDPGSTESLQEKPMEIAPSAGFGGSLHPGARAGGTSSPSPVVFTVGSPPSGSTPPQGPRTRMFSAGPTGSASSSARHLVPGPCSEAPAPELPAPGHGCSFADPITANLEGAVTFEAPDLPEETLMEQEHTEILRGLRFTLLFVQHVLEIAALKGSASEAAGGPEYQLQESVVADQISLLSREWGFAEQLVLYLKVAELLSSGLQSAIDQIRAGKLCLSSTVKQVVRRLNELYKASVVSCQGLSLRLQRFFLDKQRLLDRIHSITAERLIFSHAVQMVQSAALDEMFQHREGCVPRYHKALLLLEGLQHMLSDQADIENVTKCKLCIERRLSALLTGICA
How it was run: (§1)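 Radiometric kinase activity assays were run with ATP at Km and compounds at 10 µM, and remaining activity (%) was reported. A separate competitive binding screen measured DNA-tagged kinase displaced from immobilized active-site ligands by qPCR, giving percent kinase still bound at 10 µM compound in DMSO.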

[2] = molecular target: T2, IRAK4(h) (Homo sapiens, UniProt Q9NWZ3)
T2 sequence (Q9NWZ3 1-460): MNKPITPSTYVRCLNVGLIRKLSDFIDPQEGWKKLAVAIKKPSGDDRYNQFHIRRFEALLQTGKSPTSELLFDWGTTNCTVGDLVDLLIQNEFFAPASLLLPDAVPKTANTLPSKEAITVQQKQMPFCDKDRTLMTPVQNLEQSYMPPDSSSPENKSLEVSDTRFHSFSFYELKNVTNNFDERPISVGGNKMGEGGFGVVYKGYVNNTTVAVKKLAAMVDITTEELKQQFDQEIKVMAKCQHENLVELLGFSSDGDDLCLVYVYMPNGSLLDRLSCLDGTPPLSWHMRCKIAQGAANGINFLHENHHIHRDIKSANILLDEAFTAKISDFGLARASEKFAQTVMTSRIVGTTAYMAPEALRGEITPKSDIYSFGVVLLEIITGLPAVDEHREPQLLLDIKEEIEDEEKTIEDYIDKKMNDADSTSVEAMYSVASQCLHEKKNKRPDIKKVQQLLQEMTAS
How it was run: as §1

[3] = molecular target: T3, Tec(h) activated (Homo sapiens, UniProt P42680)
T3 sequence (P42680 1-631): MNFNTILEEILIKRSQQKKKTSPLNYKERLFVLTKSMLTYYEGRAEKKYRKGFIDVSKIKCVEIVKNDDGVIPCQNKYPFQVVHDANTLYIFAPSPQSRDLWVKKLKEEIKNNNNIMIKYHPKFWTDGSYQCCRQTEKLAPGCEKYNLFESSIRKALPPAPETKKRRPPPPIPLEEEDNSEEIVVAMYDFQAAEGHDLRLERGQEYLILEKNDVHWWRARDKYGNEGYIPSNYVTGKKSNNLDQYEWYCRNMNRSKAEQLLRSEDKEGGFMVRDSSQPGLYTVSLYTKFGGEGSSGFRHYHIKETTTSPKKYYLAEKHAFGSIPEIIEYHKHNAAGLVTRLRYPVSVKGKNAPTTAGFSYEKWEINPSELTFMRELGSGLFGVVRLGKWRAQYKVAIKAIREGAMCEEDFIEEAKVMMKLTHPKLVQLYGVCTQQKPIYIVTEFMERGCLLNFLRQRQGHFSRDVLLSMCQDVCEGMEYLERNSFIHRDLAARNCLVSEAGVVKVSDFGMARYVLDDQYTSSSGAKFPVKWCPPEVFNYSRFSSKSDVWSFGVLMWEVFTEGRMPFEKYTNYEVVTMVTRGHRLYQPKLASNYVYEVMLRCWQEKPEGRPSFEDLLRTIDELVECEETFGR
How it was run: as §1

[4] = read-out: Residual activity (%) 5ay
[5] = read-out: Residual activity (%) Spautin-1 5aa
[6] = read-out: Residual activity (%) 5at
[7] = read-out: Residual activity (%) 5as

`COc1ccc2ncnc(Nc3cccc(F)c3)c2c1` [5ay, N-(3-Fluorophenyl)-6-Methoxy-4-Quinazolinamine] gave a remaining activity at 10 µM [1, 4] of 93%, a remaining activity at 10 µM [2, 4] of 60% and a remaining activity at 10 µM [3, 4] of 76%.

Work on `Fc1ccc(CNc2ncnc3ccc(F)cc23)cc1` [5aa, 6-Fluoro-N-(4-fluorobenzyl)-4-Quinazolinamine] yielded a remaining activity at 10 µM [1, 5] of 99%, a remaining activity at 10 µM [2, 5] of 96% and a remaining activity at 10 µM [3, 5] of 78%.

`Fc1ccc2ncnc(NCCc3ccc(Cl)cc3)c2c1` [5at, N-[2-(4-Chlorophenyl)Ethyl]-6-Fluoro-4-Quinazolinamine] was tested, and the remaining activity at 10 µM [1, 6] was 84%, the remaining activity at 10 µM [2, 6] was 103% and the remaining activity at 10 µM [3, 6] was 86%.

`Fc1ccc(CCNc2ncnc3ccc(F)cc23)cc1` [5as, 6-Fluoro-N-[2-(4-Fluorophenyl)Ethyl]-4-Quinazolinamine] gave a remaining activity at 10 µM [1, 7] of 91%, a remaining activity at 10 µM [2, 7] of 92% and a remaining activity at 10 µM [3, 7] of 100%.

Source: paper PMC7827406, “Structure–Activity Relationship (SAR) Study of Spautin-1 to Entail the Discovery of Novel NEK4 Inhibitors” (International Journal of Molecular Sciences, 2021)
